Where no end group is shown, it is not given here. The star is where a group is joined. Biotin = O=C1N[C@H]2[C@H](CS[C@H]2CCCCC(=O)*)N1

The test system of assay [1] is MAGEC2(129-339) protein. In words: PEPSCAN ELISA of EID2 mutant peptides. Format: binding, human. To be noted: His-S-MAGEC2(129-339) 200-400 nM, 450 nm; for binding affinity to MAGEC2 relative to wild-type peptide: biotinylated peptide 400 nM on streptavidin-coated plates, 4°C overnight, anti-His/peroxidase, TMB, mean of 3 independent measurements, background = His-hTRF2 control; for binding affinity to MAGEC2 compared with wild-type peptide (in words): biotinylated peptide 400 nM, 3 independent measurements. The procedure:
A peptide library of the alanine mutant peptides (Table 1) of the aa 197-217 region of the human EID2 protein was obtained from Mimotopes (Australia). The library was linked to biotin via an additional peptide spacer of serine–glycine–serine–glycine. Each well on ELISA 96-well plates was coated with 100 µl of 5 µg/ml streptavidin (Sigma), incubated overnight at 37°C and then blocked with 3% bovine serum albumin (BSA) in PBS for 2 h at room temperature. The biotinylated peptides (400 nM, in PBS with 0.1% BSA) were applied into wells to saturate their surface and incubated at room temperature for 1 h. The plates were washed three times with 0.1% Tween 20 in PBS and then His-S-MAGEC2(129-339) protein was added (200–400 nM). Plates were incubated at 4°C overnight before washing (as above) to remove unbound protein. First anti-His antibody (Sigma; diluted 1/1000 in PBS with 1% BSA) was incubated for 2 h, washed three times and secondary peroxidase-conjugated rabbit-antiserum against mouse immunoglobulins (DAKO; diluted 1/1000 in PBS with 1% BSA) was added for 1 h (at 4°C). Peroxidase enzyme activity was measured with tetramethylbenzidine and the results were monitored using an automatic ELISA plate reader at a wavelength 450 nm.
In general terms: In an ELISA, binding on a coated surface is turned into a signal by an enzyme label.

Assay [2] relates to necdin (aa 1-321). In words: Pull-down of biotin-tagged EID2 peptides on streptavidin-agarose beads. Conditions: in vitro translated necdin, 2 h at 4°C in PBS, SDS-PAGE, phosphorimaging. It is filed as binding, human. The method, then:
Biotin-tagged EID2 peptides were preincubated overnight with streptavidin-agarose beads (Thermo Scientfic) at 4°C. The beads were washed 2 times with 0.1% Tween 20 in PBS buffer, then in vitro-expressed proteins in a total volume of 200 µl PBS buffer were added and incubated for 2 h at 4°C. The beads were washed 4 times with 0.1% Tween 20 in PBS buffer and the bound proteins were eluted in SDS sample buffer and boiled. Input, unbound, and bound fractions of the in vitro expressed proteins were separated by SDS-PAGE and analyzed by phosphorimaging (FLA-7000, Fujifilm). The bound fractions were analyzed by dot blotting to ensure equal EID2 peptide levels were used in pull down assays (data not shown).

For assay [3], the target named is T1, His-S-MAGEC2(129-339) (human, UniProt Q9UBF1 129-339).
T1 construct: source: E. coli C41, purified (His-TRAP column, FPLC)
T1 sequence (looked up): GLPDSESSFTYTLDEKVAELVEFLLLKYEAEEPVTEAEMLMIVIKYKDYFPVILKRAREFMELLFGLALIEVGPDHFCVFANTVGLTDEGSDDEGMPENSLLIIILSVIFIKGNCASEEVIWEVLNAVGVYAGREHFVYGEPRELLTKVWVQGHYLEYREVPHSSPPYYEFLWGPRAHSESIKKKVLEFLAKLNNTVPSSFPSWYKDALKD
Put plainly: ELISA; PEPSCAN ELISA; biotinylated EID2 peptides (400 nM) on streptavidin-coated plates; His-S-MAGEC2(129-339) 200–400 nM, 4°C overnight; anti-His detection. To be noted: both partners purified.

For “QRNPHRVDLDILTFTIAATAS [peptide #17, EID2 alanine mutant peptide L214A]”, in assay [1], the “binding affinity to MAGEC2 relative to wild-type peptide” value is given as < 20 % of WT affinity.

On to “QRNPHRVDLDILTFTIALTAA [peptide #19, EID2 alanine mutant peptide S217A]”, for which, in assay [1], the “binding affinity to MAGEC2 relative to wild-type peptide” value is reported as ~30 % of WT affinity.

As for “QRNPHRVDLDILTATIALTAS [peptide #14, EID2 alanine mutant peptide F210A]”, the “binding affinity to MAGEC2 relative to wild-type peptide” value in assay [1] is < 20 % of WT affinity. In assay [2], the “binding of necdin to peptide (pull-down, in words)” value (“binding of necdin to peptide” below) is “significantly reduced”.

As to “QRNPHRVDLDILTFTIALAAS [peptide #18, EID2 alanine mutant peptide T215A]”, the “binding affinity to MAGEC2 relative to wild-type peptide” value in assay [1] was ~30 % of WT affinity.

For the molecule “QRNPHRVDLDALTFTIALTAS [peptide #11, EID2 alanine mutant peptide I207A]”, the “binding affinity to MAGEC2 relative to wild-type peptide” value in assay [1] was ~30 % of WT affinity.

Regarding “QANPHRVDLDILTFTIALTAS [peptide #2, EID2 alanine mutant peptide R198A]”, in assay [1], the “binding affinity to MAGEC2 relative to wild-type peptide” value is reported as < 20 % of WT affinity and the “binding affinity to MAGEC2 compared with wild-type peptide (in words)” value was “significantly reduced”. The “binding of necdin to peptide” value in assay [2] is on record as “comparable to the wild-type peptide”.

As for “QRNPHAVDLDILTFTIALTAS [peptide #6, EID2 alanine mutant peptide R202A]”, the “binding affinity to MAGEC2 relative to wild-type peptide” value in assay [1] was < 20 % of WT affinity.

As for “QRNPHRVDLAILTFTIALTAS [peptide #10, EID2 alanine mutant peptide D206A]”, the “binding affinity to MAGEC2 relative to wild-type peptide” value in assay [1] was ~30 % of WT affinity.

Turning to “QRNPHRVDADILTFTIALTAS [peptide #9, EID2 alanine mutant peptide L205A]”, the “binding affinity to MAGEC2 relative to wild-type peptide” value in assay [1] is reported as ~30 % of WT affinity.

With “ARNPHRVDLDILTFTIALTAS [peptide #1, EID2 alanine mutant peptide Q197A]”, in assay [1], the “binding affinity to MAGEC2 relative to wild-type peptide” value was ~30 % of WT affinity and the “binding affinity to MAGEC2 compared with wild-type peptide (in words)” value was “significantly reduced”. Moreover, in assay [2], the “binding of necdin to peptide” value is on record as “comparable to the wild-type peptide”.

On to “QRNPHRVALDILTFTIALTAS [peptide #8, EID2 alanine mutant peptide D204A]”, for which, in assay [1], the “binding affinity to MAGEC2 compared with wild-type peptide (in words)” value was “comparable to that of the wild-type peptide”.

In the case of “QRNPHRVDLDILTFTAALTAS [peptide #16, EID2 alanine mutant peptide I212A]”, the “binding affinity to MAGEC2 relative to wild-type peptide” value in assay [1] is < 20 % of WT affinity. In addition, in assay [2], the “binding of necdin to peptide” value is reported as “significantly reduced”.

“QRNPHRVDLDIATFTIALTAS [peptide #12, EID2 alanine mutant peptide L208A]”: the “binding affinity to MAGEC2 relative to wild-type peptide” value in assay [1] is given as ~30 % of WT affinity.

B1: EID2 WT peptide (aa 197-217) (peptide)
peptide: Biotin-SGSGQRNPHRVDLDILTFTIALTAS
notes: also called wild-type peptide; long EID2 peptide; source: synthetic peptide (Mimotopes); not shown: biotin-SGSG spacer, N-terminal, kept
Take B1: the binding result in assay [3] is recorded as “binds”.

For the molecule Biotin-SGSGQRNPHRADLDILTFTIALTAS (source: synthetic peptide (Mimotopes)) [EID2 peptide #7], in assay [3], the binding result is on record as “binds”.

Biotin-SGSGQRNPARVDLDILTFTIALTAS (source: synthetic peptide (Mimotopes)) [EID2 peptide #5]: the binding result in assay [3] is on record as “binds”.

In the case of Biotin-SGSGQRNAHRVDLDILTFTIALTAS (source: synthetic peptide (Mimotopes)) [EID2 peptide #4], in assay [3], the binding result is given as “binds”.

For Biotin-SGSGQRNPHRVDLDILTFAIALTAS (source: synthetic peptide (Mimotopes)) [EID2 peptide #15], the binding result in assay [3] is listed as “binds”.

Consider Biotin-SGSGQRAPHRVDLDILTFTIALTAS (source: synthetic peptide (Mimotopes)) [EID2 peptide #3], for which the binding result in assay [3] is given as “binds”.

Consider Biotin-SGSGQRNPHRVDLDILAFTIALTAS (source: synthetic peptide (Mimotopes)) [EID2 peptide #13], for which the binding result in assay [3] is “binds”.

As for Biotin-SGSGQRNPHRVALDILTFTIALTAS (source: synthetic peptide (Mimotopes)) [EID2 peptide #8 (D204A)], the binding result in assay [3] is on record as “binds”.
